Columns and labels:
anaesthetized rats = experiment: Reduction of blood pressure in anaesthetized rats on intravenous infusion; assay type: in vivo, rat; conditions: n=3, Mean ± SEM
Description: The vasodilatory effect of the prostaglandin analogues was also studied in the rat by registering the blood pressure reducing effect. This is a relevant […] model for showing general vasodilatory effect of importance for inducing erection since vasodilation in penis is needed for achieving erection. Rats were anaesthetized with a mixture of ketarnine and xylazin and the prostaglandin analogues were infused intravenously. The blood pressure was continuously registered in a femoral artery. Each analogue was infused in 3 escalating doses in the same animal. […] In all experiments the blood pressure reduction was transient and the blood pressure increased immediately after termination of the infusion. The analogues were used both as esters and acids for the experiments.

cat eyes [1] = experiment: Irritant effect in cat eyes (behavioural model, eyelid closure); assay type: in vivo; conditions: for Maximum irritative effect: scale 0-3, Mean ± SEM (n = 3-6); for irritant effect (in words): cat eye, topical single dose
Method: The irritant effect of the prostaglandin analogues was tested using a behavioural model in cats. In this model the irritant effect on the eye is studied by registering the degree of eyelid closure and the behaviour of the animals. Compounds that cause discomfort and pain in the eye cause the animals to close their eyes. The analogues were applied as carboxylic acid esters, to enhance bioavailability, topically on the eye as a single dose at different dose levels. The animals were then followed for several hours at regular intervals. Each compound and dose was tested on a group of 3-6 cats. At least 3 days elapsed between two consecutive tests on the same animals. An arbitrary scale from 0 (absence of irritation) to 3 (marked irritation), with half steps was used.

[2] = tested on: human corpus cavernosum tissue; experiment: Relaxation of isolated human corpus cavernosum tissue precontracted with norepinephrine; assay type: cell-based; conditions: for Reduction in tension (%): precontracted with 10^−6 M norepinephrine, compared to carbachol (10^−6 M), Mean ± SEM; for Reduction in tension (%) / EC50: n=8; for EC50: relaxation of tissue precontracted with 10^−6 M norepinephrine
Method: Human penile cavernous tissue was obtained fresh from surgery, and representative tissue samples were mounted in smooth muscle tissue baths containing a modified Kreb's solution consisting of NaCl 119 mM, KCl 4.6 mM, MgCl2 1.2 mM, NaH2PO4 1.2 mM, NaHCO3 15 mM, CaCl2 1.5 mM and glucose 11 mM. The solution also contained indomethacin at a final concentration of about 3 μM. The solution was continuously bubbled by 95% O2 and 5% CO2, and the temperature was kept at 37° C.
The tissue preparations were stretched by a force corresponding to 500 mg, and were given a contractile tone by the addition of norepinephrine at a concentration of 10^−6 M. Concentration-response curves were then constructed by adding cumulatively increasing concentrations of the prostaglandin analogues to the bath in a routine way. The relaxant effect was normalized by comparing to that of carbachol in the same preparation.

cat eyes [3] = experiment: Irritant effect in cat eyes (behavioural model, eyelid closure); assay type: in vivo; conditions: cat eye
rabbits = conditions: Hall and Jaitly, 1977; cited from earlier work
[4] = tested on: rabbit penile blood vessels; experiment: Vasodilatory effect on isolated rabbit penile blood vessels precontracted with norepinephrine (myograph); assay type: cell-based; conditions: FIG. 2; precontracted with 10^−6 M norepinephrine; normalized to papaverine
Method: The solution also contained indomethacin at a final concentration of about 3 μM, and was continuously bubbled by 95% O2 and 5%CO2. The temperature was kept constant at 37° C. The vessels were stretched and then precontracted using 10^-6 M norepinephrine, and the vasorelaxant effect of the prostaglandin analogues was normalized by comparing it to that of papaverine in the same preparation. Cumulative concentration-response curves were constructed for the analogues.

cat eyes [5] = experiment: Intraocular pressure in cats by pneumatonometry after topical administration; assay type: in vivo; conditions: 3 cats, local anaesthesia; before treatment 16.3+/−0.9 mmHg; vehicle eye 16.3 and 15.7 mmHg
Method: To confirm that 19R-OH-PGE2-methyl ester, which is more hydrophilic than PGE1-isopropyl ester, indeed penetrates into the cornea and the intraocular parts of the eye we measured the intraocular pressure in 3 cats under local anaesthesia before and 1 hour after topical administration of the prostaglandin to the eye. The intraocular pressure was measured by pneumatonometry. One eye was treated with the test compound and the other eye received the vehicle only. In the eyes treated topically with 19R-OH-PGE2-methyl ester the intraocular pressure decreased from 16.3+/−0.9 mmHg to 12.7+/−1.2 mmHg, whereas it was 16.3+/−0.9 mmHg and 15.7+/−0.7 mmHg in the control eyes at the same time points. It is well known that prostaglandins reduce the intraocular pressure in cats (Bito et al., 1989), and it can thus be taken as an evidence that the drug has penetrated into the eye. […] Thus the absence of pain and irritation after administration of 18RS-OH-PGE2, 19R-OH-PGE2 and 20OH-PGE2 cannot be explained on the basis of increased hydrophilicity and poor bioavailability.

[6] = log P estimated by thin layer chromatography; assay type: physicochemical; conditions: estimated from thin layer chromatography with PGF2α isopropyl ester as reference
[7] = reference value used for the TLC estimate; cited from earlier work
[8] = 7.5-10 μg/kg intravenous infusion
[9] = 25-35 μg/kg intravenous infusion

Row | Compound | Reduction (%) of blood pressure (anaesthetized rats; [8]) | Reduction (%) of blood pressure (anaesthetized rats; [9]) | Maximum irritative effect (cat eyes [1]; Dose 1 μg topically on eye) | Maximum irritative effect (cat eyes [1]; Dose 10 μg topically on eye) | Reduction in tension (%) [2] | Maximum irritative effect (cat eyes [1]; Dose 0.1 μg topically on eye) | further results
1 | 18RS-OH-PGE2 | 15 ± 3% | 32 ± 2% | – | – | – | – | –
2 | CCC(O)CC[C@H](O)/C=C/[C@H]1[C@H](O)CC(=O)[C@@H]1C/C=C\CCCC(=O)OC (stereo partly shown) [18RS-OH-PGE2-me, 18RS-Hydroxy PGE2 Methyl Ester] | – | – | 0.0 ± 0.0 | 0.0 ± 0.0 | – | – | Maximum irritative effect (cat eyes [1]; Dose 3 μg topically on eye): 0.0 ± 0.0; Maximum irritative effect (cat eyes [1]; Dose 30 μg topically on eye): 0.3 ± 0.2; irritant effect (in words) (cat eyes [1]): no or markedly reduced irritant effect, even at doses 1000 times higher than PGE1-isopropyl ester
3 | C[C@@H](O)CCC[C@H](O)/C=C/[C@H]1[C@H](O)CC(=O)[C@@H]1C/C=C\CCCC(=O)O [19R-OH-PGE2, 19R-hydroxy-prostaglandin E2] | 31 ± 3% | 43 ± 6% | – | – | 96.9 ± 3.1% | – | factor by which concentration-response curves of PGE1 and 19R-OH-PGE2 differ ([2]; FIG. 1, 19R-OH-PGE2 about half to one third as potent as PGE1): 2-3; EC50 [2]: 690 nM; irritation by swelling of the ocular structures (in words) (cat eyes [3]): no evidence of such irritation; lid closure and irritant effect in rabbit eye (in words) (rabbits): does not cause lid closure in rabbits but induces an irritant effect by inducing swelling of the ocular structures; vasodilatory effect (in words) [4]: the same efficacy in inducing vasodilatation and were also about equipotent
4 | COC(=O)CCC/C=C\C[C@H]1C(=O)C[C@@H](O)[C@@H]1/C=C/[C@@H](O)CCC[C@@H](C)O [19R-OH-PGE2-me, 19-R-Hydroxy-prostaglandin E2-Methyl Ester] | – | – | 0.1 ± 0.1 | 0.1 ± 0.1 | – | 0.0 ± 0.0 | Maximum irritative effect (cat eyes [1]; Dose 100 μg topically on eye): 0.7 ± 0.4; irritant effect (in words) (cat eyes [1]): no or markedly reduced irritant effect, even at doses 1000 times higher than PGE1-isopropyl ester; intraocular pressure 1 hour after topical administration (cat eyes [5]): 12.7+/−1.2 mmHg
5 | O=C(O)CCC/C=C\C[C@H]1C(=O)C[C@@H](O)[C@@H]1/C=C/[C@@H](O)CCCCCO [20-OH-PGE2, 20-hydroxy PGE2] | 38 ± 3% | 44 ± 0% | – | – | – | – | –
6 | COC(=O)CCC/C=C\C[C@H]1C(=O)C[C@@H](O)[C@@H]1/C=C/[C@@H](O)CCCCCO [20-OH-PGE2-me, 20-OH-Prostaglandin E2-Methyl Ester] | – | – | – | 1.2 ± 0.2 | – | – | Maximum irritative effect (cat eyes [1]; Dose 3 μg topically on eye): 0.5 ± 0.0; Maximum irritative effect (cat eyes [1]; Dose 30 μg topically on eye): 1.2 ± 04
7 | C[N+](C)(C)CCOC(N)=O [Carbachol, reference compound] | – | – | – | – | 100.0 ± 0.0% | – | –
8 | CCCCC[C@H](O)/C=C/[C@H]1[C@H](O)CC(=O)[C@@H]1CCCCCCC(=O)O [PGE1, prostaglandin E1, reference compound] | 35 ± 5% | 52 ± 3% | 1.6 ± 0.2 | 3.0 ± 0.0 | 90.9 ± 3.7% | 0.6 ± 0.1 | EC50 ([2]; Homo sapiens): 250 nM; chromatographic logP [6]: 0.7; vasodilatory effect (in words) [4]: the same efficacy in inducing vasodilatation and were also about equipotent
9 | CCCCC[C@H](O)/C=C/[C@H]1[C@H](O)CC(=O)[C@@H]1CCCCCCC(=O)OC(C)C [PGE1-ie, PGE1-isopropyl ester, reference compound] | – | – | – | – | – | 1.7 ± 0.3 | Maximum irritative effect (cat eyes [1]; Dose 0.01 μg topically on eye): 0.4 ± 0.2; Maximum irritative effect (cat eyes [1]; Dose 0.3 μg topically on eye): 2.8 ± 0.1
10 | CCCCC[C@H](O)/C=C/[C@@H]1[C@@H](C/C=C\CCCC(=O)OC(C)C)[C@@H](O)C[C@H]1O [PGF2α isopropyl ester] | – | – | – | – | – | – | log P of reference [7]: (log P 4.5). ie = isopropyl ester, me = methyl ester.

— patent US6476074B1, “Method and composition for treatment of erectile dysfunction” (Synphora AB, priority 1997, dated 2002)
